The values that follow come from US7217730B2, “Method for the use of pyranoindole derivatives to treat infection with Hepatitis C virus” (Wyeth, priority 2002, dated 2007).

Where two headings read alike, the source gives them in different places.

Experiment [1] concerns the target T1, NS5B from the BK strain (genotype 1b) (Hepatitis C virus genotype 1b, UniProt P26663).
T1 construct: NS5B from the BK strain (genotype 1b) is expressed in E. coli as a protein in which the 21 C-terminal amino acids are replaced; made in house; host or cells: E. coli
Briefly: Hepatitis C polymerase inhibition, NS5B BK strain, 33P-GTP filter assay. The experiment is classed as biochemical. The settings on record: for IC50: NS5B BK strain; for inhibition at 20 µM: read-out: HCV pol % inh at 20 μM. The essentials:
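E. coli-expressed NS5B (BK, genotype 1b) with the 21 C-terminal residues replaced by a linker-His6 tag was preincubated with compound for 15 min at room temperature. It then extended a hairpin-primed heteropolymeric RNA (~3 nM, ~760 nt product) with α-[33P]-GTP for 2 h at 22–25° C. The reaction was stopped with EDTA, and incorporated label was counted on filters.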

In experiment [2] the target is BB7 (RNA-dependent RNA polymerase hepatitis C virus protein sequence derived from HCV replicon) (Hepatitis C virus genotype 1b, UniProt Q9WMX2). Description: Hepatitis C polymerase inhibition, BB7 sequence. The experiment is classed as biochemical. The settings on record: Table 1B.
Chain of BB7 (RNA-dependent RNA polymerase hepatitis C virus protein sequence derived from HCV replicon) (Q9WMX2 2420-3010): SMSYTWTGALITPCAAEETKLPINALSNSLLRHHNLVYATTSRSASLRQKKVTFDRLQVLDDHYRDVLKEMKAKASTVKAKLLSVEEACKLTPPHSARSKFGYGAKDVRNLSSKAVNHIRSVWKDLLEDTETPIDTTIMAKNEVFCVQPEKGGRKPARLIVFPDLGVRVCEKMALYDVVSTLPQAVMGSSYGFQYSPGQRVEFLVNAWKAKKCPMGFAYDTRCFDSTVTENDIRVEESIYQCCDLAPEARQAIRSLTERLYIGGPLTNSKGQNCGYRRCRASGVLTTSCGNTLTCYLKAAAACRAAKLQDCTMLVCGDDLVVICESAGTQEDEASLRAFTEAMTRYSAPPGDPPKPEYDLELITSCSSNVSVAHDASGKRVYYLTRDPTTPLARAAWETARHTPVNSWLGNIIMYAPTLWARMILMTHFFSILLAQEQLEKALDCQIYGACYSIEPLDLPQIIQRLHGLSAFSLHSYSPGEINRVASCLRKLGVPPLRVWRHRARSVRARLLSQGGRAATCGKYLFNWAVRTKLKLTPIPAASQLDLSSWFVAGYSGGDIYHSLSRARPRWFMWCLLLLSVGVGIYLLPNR
[3] abbreviates: Table 1A, read-out: HCV pol BK IC50.

For orientation: IC50 means the concentration that gives 50% inhibition.

T1 sequence (P26663 2420-2989): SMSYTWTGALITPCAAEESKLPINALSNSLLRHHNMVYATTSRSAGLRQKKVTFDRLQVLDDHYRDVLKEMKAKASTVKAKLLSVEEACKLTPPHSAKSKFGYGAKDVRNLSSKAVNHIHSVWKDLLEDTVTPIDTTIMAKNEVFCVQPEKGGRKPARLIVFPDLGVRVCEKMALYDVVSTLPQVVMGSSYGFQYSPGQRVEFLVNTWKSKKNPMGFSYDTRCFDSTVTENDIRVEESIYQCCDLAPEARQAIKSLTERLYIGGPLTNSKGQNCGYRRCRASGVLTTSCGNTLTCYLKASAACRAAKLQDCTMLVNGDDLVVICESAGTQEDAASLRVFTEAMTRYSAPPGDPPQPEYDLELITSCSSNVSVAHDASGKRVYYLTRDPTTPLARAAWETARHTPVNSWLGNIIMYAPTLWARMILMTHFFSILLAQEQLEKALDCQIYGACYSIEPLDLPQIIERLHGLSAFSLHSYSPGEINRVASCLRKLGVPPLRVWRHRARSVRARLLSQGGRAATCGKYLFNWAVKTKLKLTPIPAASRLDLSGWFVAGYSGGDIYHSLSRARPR

Regarding `CCCC1(CC(=O)O)OCCc2c1[nH]c1c(C)c(C(=O)N(C)C)cc(C#N)c21` (stereo not drawn) [Example 358, (5-cyano-8-methyl-7-dimethylcarbamoyl-1-propyl-1,3,4,9-tetrahydro-pyrano[3,4-b]indol-1-yl)-acetic acid], the IC50 in experiment [1] (Table 1B, read-out: BK IC50) came out at 16 µM; in experiment [2] it was 20 µM.
For `CCC[C@@]1(CC(=O)O)OCCc2c1[nH]c1c(Cl)ccc(C#N)c21` [Example 323, (1S)-(8-chloro-5-cyano-1-propyl-1,3,4,9-tetrahydropyrano[3,4-b]indol-1-yl)acetic acid], the IC50 amounted to 4.9 µM in experiment [1] (Table 1B, read-out: BK IC50) and 11 µM in experiment [2].
The matching figures for `CC[C@H](C)C1(CC(=O)O)OCCc2c1[nH]c1c(C)ccc([N+](=O)[O-])c21` (mixture of isomers) [Example 300, (1R*,10S)-[8-methyl-1-(1-methylpropyl)-5-nitro-1,3,4,9-tetrahydropyrano[3,4-b]indol-1-yl]acetic acid]: 0.14 µM and 0.25 µM.
`CC1(CC(=O)O)OCCc2c1[nH]c1c(Cl)ccc(Cl)c21` (stereo not drawn) [Example 242, (5,8-dichloro-1-methyl-1,3,4,9-tetrahydropyrano[3,4-b]indol-1-yl)acetic acid] came in with an IC50 in experiment [2] of 18 µM.
In the case of `CSCC1(CC(=O)O)OCCc2c1[nH]c1c(F)ccc(C#N)c21` (stereo not drawn) [Example 305, (5-cyano-8-fluoro-1-methylthiomethyl-1,3,4,9-tetrahydropyrano[3,4-b]indol-1-yl)acetic acid], the IC50 in experiment [1] (Table 1B, read-out: BK IC50) is more than 30 µM; in experiment [2], more than 30 µM.
Regarding `CC[C@H](C)[C@@]1(CC(=O)O)OCCc2c1[nH]c1c(C)cc(F)c(C#N)c21` [Example 319, (1R,10S)-[5-cyano-6-fluoro-8-methyl-1-(1-methylpropyl)-1,3,4,9-tetrahydropyrano[3,4-b]indol-1-yl]acetic acid], the IC50 in experiment [1] (Table 1B, read-out: BK IC50) was determined as 0.06 µM; in experiment [2] it was 0.08 µM.
As to `CCCOc1cc(C#N)c2c3c([nH]c2c1C)C(CCC)(CC(=O)O)OCC3` (stereo not drawn) [Example 359, (5-cyano-8-methyl-7-propoxy-1-propyl-1,3,4,9-tetrahydro-pyrano[3,4-b]indol-1-yl)-acetic acid], the concentration for half-maximal inhibition (IC50) in experiment [1] (Table 1B, read-out: BK IC50) was 0.07 µM; in experiment [2], 0.07 µM.
Turning to `CCCC1(CC(=O)O)OCCc2c1[nH]c1c(C)c(C(=O)NC)cc(C#N)c21` (stereo not drawn) [Example 357, (5-cyano-8-methyl-7-methylcarbamoyl-1-propyl-1,3,4,9-tetrahydro-pyrano[3,4-b]indol-1-yl)-acetic acid], the IC50 in experiment [1] (Table 1B, read-out: BK IC50) stood at 1.3 µM; in experiment [2] it was 0.97 µM.
As to `CCOCC1(CC(=O)O)OCCc2c1[nH]c1cc(Cl)c(Cl)cc21` (stereo not drawn) [Example 241, (6,7-dichloro-1-ethoxymethyl-1,3,4,9-tetrahydropyrano[3,4-b]indol-1-yl)acetic acid], the IC50 in experiment [2] is more than 30 µM.
On to `O=C(O)CC1(c2ccc(C(=O)O)cc2)OCCc2c1[nH]c1c(F)ccc(F)c21` (stereo not drawn) [Example 128, 4-[1-(carboxymethyl)-5,8-difluoro-1,3,4,9-tetrahydropyrano[3,4-b]indol-1-yl]benzoic acid], for which, in experiment [1] (Table 1A, 20 μM compound), the inhibition at 20 µM amounted to 70%. The IC50 in experiment [1] (setting [3]) was more than 20 µM.
Regarding “(4-cyclobutyl-5,8-dichloro-1-propyl-1,3,4,9-tetrahydropyrano[3,4-b]indol-1-yl)acetic acid [Example 231]”, the concentration for half-maximal inhibition (IC50) in experiment [1] (setting [3]) came out at 7.2 µM.
For `CCC1(CC(=O)O)OCCc2c1[nH]c1c(C(F)(F)F)cccc21` (stereo not drawn) [Example 116, [1-ethyl-8-(trifluoromethyl)-1,3,4,9-tetrahydropyrano[3,4-b]indol-1-yl]acetic acid], in experiment [1] (Table 1A, 20 μM compound), the inhibition at 20 µM worked out at 34%. The half-inhibitory concentration (IC50) in experiment [1] (setting [3]) was more than 20 µM.
The matching figures for `N#Cc1cccc2[nH]c3c(c12)CCOC3(CC(=O)O)c1ccccc1` (stereo not drawn) [Example 62, (5-cyano-1-phenyl-1,3,4,9-tetrahydropyrano[3,4-b]indol-1-yl)acetic acid]: 32% and more than 20 µM.
For `CCCCC1(CC(=O)O)OCCc2c1[nH]c1c(Cl)cc(Cl)c(Cl)c21` (stereo not drawn) [Example 158, (1-butyl-5,6,8-trichloro-1,3,4,9-tetrahydropyrano[3,4-b]indol-1-yl)acetic acid], the inhibition at 20 µM in experiment [1] (Table 1A, 20 μM compound) was found to be 91%. In experiment [1] (setting [3]), the IC50 worked out at 0.28 µM.
As to “(5-cyano-8-fluoro-6-methyl-1-propyl-1,3,4,9-tetrahydropyrano[3,4-b]indol-1-yl)acetic acid [Example 221]”, in experiment [1] (Table 1A, 20 μM compound), the “HCV pol % inh at 20 μM” value was 81%. Further, in experiment [1] (setting [3]), the IC50 is 0.43 µM.
Take `CCCC1(CC(=O)O)OCCc2c1[nH]c1c(Cl)cc(C)c(Br)c21` (stereo not drawn) [Example 175, (5-bromo-8-chloro-6-methyl-1-propyl-1,3,4,9-tetrahydropyrano[3,4-b]indol-1-yl)acetic acid]: in experiment [1] (Table 1A, 20 μM compound), the inhibition at 20 µM came to 84%. In experiment [1] (setting [3]), the IC50 stood at 0.5 µM.
The like results for `CC(C)C1(CC(=O)O)OCCc2c1[nH]c1c(F)cc(F)c(Br)c21` (stereo not drawn) [Example 193, (5-bromo-6,8-difluoro-1-isopropyl-1,3,4,9-tetrahydropyrano[3,4-b]indol-1-yl)acetic acid] were, in that order, 69% and 4.5 µM.
The like results for `Cc1cc(F)c(Br)c2c3c([nH]c12)C(CC(=O)O)(C(C)C)OCC3` (stereo not drawn) [Example 202, (5-bromo-6-fluoro-1-isopropyl-8-methyl-1,3,4,9-tetrahydropyrano[3,4-b]indol-1-yl)acetic acid] were, in that order, 82% and 2.9 µM.
Regarding `CCCC1(CC(=O)O)OCCc2c1n(C)c1c(Cl)ccc(Cl)c21` (stereo not drawn) [Example 232, (5,8-dichloro-9-methyl-1-propyl-1,3,4,9-tetrahydropyrano[3,4-b]indol-1-yl)acetic acid], in experiment [1] (setting [3]), the IC50 came out at 7.6 µM.
For the molecule `Cc1cc(F)c(C#N)c2c3c([nH]c12)C(CC(=O)O)(C(C)C)OCC3` (stereo not drawn) [Example 207, (5-cyano-6-fluoro-1-isopropyl-8-methyl-1,3,4,9-tetrahydropyrano[3,4-b]indol-1-yl)acetic acid], the inhibition at 20 µM in experiment [1] (Table 1A, 20 μM compound) came to 76%. In experiment [1] (setting [3]), the IC50 was found to be 0.58 µM.
The like results for `C/C=C/CCC1(CC(=O)O)OCCc2c1[nH]c1cccc(Br)c21` (stereo not drawn) [Example 24, {5-bromo-1-[(3E)-pent-3-enyl]-1,3,4,9-tetrahydropyrano[3,4-b]indol-1-yl}acetic acid] were, in that order, less than 5% and more than 20 µM.
As to `CCCC1(CC(=O)O)OCCc2c1[nH]c1cccc(-c3cccs3)c21` (stereo not drawn) [Example 37, (1-propyl-5-thien-2-yl-1,3,4,9-tetrahydropyrano[3,4-b]indol-1-yl)acetic acid], the inhibition at 20 µM in experiment [1] (Table 1A, 20 μM compound) came out at 28%. In experiment [1] (setting [3]), the IC50 was more than 20 µM.
The matching figures for `CC(C)C1(CC(=O)O)OCCc2c1[nH]c1c(Cl)cccc21` (stereo not drawn) [Example 75, (8-chloro-1-isopropyl-1,3,4,9-tetrahydropyrano[3,4-b]indol-1-yl)acetic acid]: 17% and more than 20 µM.
In the case of `CCC1(CC(=O)O)OCCc2c1[nH]c1c(F)cc(F)c(C#N)c21` (stereo not drawn) [Example 194, (5-cyano-1-ethyl-6,8-difluoro-1,3,4,9-tetrahydropyrano[3,4-b]indol-1-yl)acetic acid], in experiment [1] (Table 1A, 20 μM compound), the inhibition at 20 µM is 50%. Moreover, the IC50 in experiment [1] (setting [3]) was more than 5 µM.
`CCCC1(CC(=O)O)OC(C)Cc2c1[nH]c1c(F)ccc(C#N)c21` (stereo not drawn) [Example 228, (5-cyano-8-fluoro-3-methyl-1-propyl-1,3,4,9-tetrahydropyrano[3,4-b]indol-1-yl)acetic acid]: the IC50 in experiment [1] (setting [3]) is 8.9 µM.
